# From patent US20230058189A1, “QUINOLIN-4-ONE AND 4(1H)-CINNOLINONE COMPOUNDS AND METHODS OF USING SAME” (Frequency Therapeutics, Inc., priority 2019, published 2023)
# Experiments:
# Assay type in all cases: biochemical
# LSD2 = target: T1, LSD2 (Homo sapiens, UniProt Q8NB78); assay: LSD2 A-screen (AlphaScreen) demethylase enzymatic assay; conditions: 50 μM compound; approximate values; read-out: Potency LSD-2 % Inhibition at 50 μM
# T1 sequence (Q8NB78 1-822): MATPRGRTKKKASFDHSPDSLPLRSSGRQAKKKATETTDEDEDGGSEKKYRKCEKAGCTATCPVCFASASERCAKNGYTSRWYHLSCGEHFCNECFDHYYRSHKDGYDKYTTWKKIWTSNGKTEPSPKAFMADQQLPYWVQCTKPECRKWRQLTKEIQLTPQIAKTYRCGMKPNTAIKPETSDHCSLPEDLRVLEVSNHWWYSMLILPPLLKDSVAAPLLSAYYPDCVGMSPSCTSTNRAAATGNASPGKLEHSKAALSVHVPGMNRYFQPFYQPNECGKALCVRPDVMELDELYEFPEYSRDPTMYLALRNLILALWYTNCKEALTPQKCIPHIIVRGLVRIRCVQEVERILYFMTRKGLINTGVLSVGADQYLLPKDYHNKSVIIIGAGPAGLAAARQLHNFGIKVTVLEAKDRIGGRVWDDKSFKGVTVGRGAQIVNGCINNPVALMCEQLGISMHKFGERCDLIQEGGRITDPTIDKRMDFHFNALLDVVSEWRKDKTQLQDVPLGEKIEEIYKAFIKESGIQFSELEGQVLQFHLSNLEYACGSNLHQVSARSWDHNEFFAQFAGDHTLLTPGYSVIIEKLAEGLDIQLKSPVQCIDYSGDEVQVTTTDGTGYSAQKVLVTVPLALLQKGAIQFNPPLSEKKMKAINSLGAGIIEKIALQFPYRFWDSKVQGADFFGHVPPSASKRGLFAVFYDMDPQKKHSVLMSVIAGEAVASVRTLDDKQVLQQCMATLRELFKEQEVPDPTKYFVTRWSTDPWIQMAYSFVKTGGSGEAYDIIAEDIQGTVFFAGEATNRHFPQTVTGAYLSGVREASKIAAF
# Outline: (§1)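 Recombinant human demethylase was preincubated 30 min with compound, then reacted with histone H3 peptide substrate for 60 min at room temperature (1% DMSO, duplicates). Product was detected by AlphaScreen with primary antibody, acceptor and streptavidin donor beads. No-enzyme and no-compound wells set 0% and 100% activity; IC50 came from sigmoidal dose-response fits.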
# GSK3α = GSK3α (Homo sapiens, UniProt P49840); assay: GSK3α in vitro enzymatic assay (Kinase-Glo Max luminescence); conditions: recombinant human GSK3, 10 μM ATP; approximate values; read-out: Potency GSK3alpha
# Sequence of GSK3α (P49840 whole entry): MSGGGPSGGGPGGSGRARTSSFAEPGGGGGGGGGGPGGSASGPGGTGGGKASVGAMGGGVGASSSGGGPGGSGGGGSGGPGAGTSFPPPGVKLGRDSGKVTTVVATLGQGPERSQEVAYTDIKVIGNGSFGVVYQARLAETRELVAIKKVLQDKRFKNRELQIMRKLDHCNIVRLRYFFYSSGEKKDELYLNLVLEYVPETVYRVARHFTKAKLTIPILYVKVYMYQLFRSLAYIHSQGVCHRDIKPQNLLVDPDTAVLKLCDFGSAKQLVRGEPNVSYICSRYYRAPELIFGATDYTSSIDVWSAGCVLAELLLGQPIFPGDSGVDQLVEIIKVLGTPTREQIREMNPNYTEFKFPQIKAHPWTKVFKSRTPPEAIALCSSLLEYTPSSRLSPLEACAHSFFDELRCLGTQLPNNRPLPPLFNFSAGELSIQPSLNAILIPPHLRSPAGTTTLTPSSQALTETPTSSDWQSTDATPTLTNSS
# Outline: (§2)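 Recombinant human enzyme was run for 40 min at 30 °C in Tris pH 7.4 with 0.1 mg/ml GSK tide substrate, 10 uM ATP and 1% DMSO final, in duplicate. Remaining ATP was read by Kinase-Glo Max luminescence. IC50 came from a sigmoidal fit of percent activity.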
# LSD-1 = LSD-1 (Homo sapiens, UniProt O60341); assay: LSD-1 A-screen (AlphaScreen) demethylase enzymatic assay; conditions: 50 μM compound; approximate values; read-out: Potency LSD-1 % Inhibition at 50 μM
# Outline: as §1
# GSK3β = GSK3β (Homo sapiens, UniProt P49841); assay: GSK3β in vitro enzymatic assay (Kinase-Glo Max luminescence); conditions: recombinant human GSK3, 10 μM ATP; approximate values; read-out: Potency GSK3beta
# Sequence of GSK3β (P49841 whole entry): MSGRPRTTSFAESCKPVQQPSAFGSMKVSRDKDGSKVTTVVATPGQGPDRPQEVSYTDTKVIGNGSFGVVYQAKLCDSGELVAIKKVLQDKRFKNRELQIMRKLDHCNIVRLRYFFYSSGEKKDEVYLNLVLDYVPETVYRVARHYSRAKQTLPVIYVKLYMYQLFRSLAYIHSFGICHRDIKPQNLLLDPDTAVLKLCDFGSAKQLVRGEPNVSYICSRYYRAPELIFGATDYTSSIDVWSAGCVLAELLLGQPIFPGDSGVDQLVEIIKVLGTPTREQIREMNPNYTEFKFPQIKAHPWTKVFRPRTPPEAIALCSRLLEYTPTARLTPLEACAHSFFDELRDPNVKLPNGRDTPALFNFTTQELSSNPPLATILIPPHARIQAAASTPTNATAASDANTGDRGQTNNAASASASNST
# Outline: as §2
smiles,measurement,setting,value
CCn1cc(C(=O)O)c(=O)c2cc(F)c(NC3CCCCC3)cc21 [Compound I-1],inhibition at 50 µM,LSD2,6%
same,IC50,GSK3α,3.6 µM
same,inhibition at 50 µM,LSD-1,10%
same,IC50,GSK3β,6.7 µM
